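Tested at 5 concentrations; 48 h exposure; 96-well plates; endpoints linearly interpolated, else capped at highest concentration. The concentration for 50% growth inhibition is given as GI50. TGI marks complete inhibition of growth.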 A value given as a limit tells only on which side of the number the result lay.

Our source for the GI50 and TGI values is PubChem BioAssay (NCI).

Common to all, as to test: NCI anticancer screen, dose series, 48 h
For assay [1], the system named is HOP-92 NSCLC.
Assay [2] has as its system LOX IMVI melanoma.
In assay [3] the test system is MALME-3M melanoma.
For assay [4], the system named is MDA-MB-435.
The subject of assay [5] is MOLT-4 leukemia.
Assay [6] deals with NCI-H226 lung.
For assay [7], the system named is NCI-H23 lung.
The test system of assay [8] is OVCAR-3 ovarian.
In assay [9] the test system is OVCAR-4 ovarian.
For assay [10], the system named is SK-MEL-2 melanoma.

For `CC(C)(C)OC(=O)N1Cc2cc3ccccc3nc2C1CO` (stereo not given), the GI50 in assay [1] was 57.8 µM; in [2] it was over 100 µM; in [3], over 100 µM; in assay [4], over 100 µM; in assay [5] it was over 100 µM; in assay [6], over 100 µM. In addition, the GI50 in [7], in [8], in [9] and in assay [10] was over 100 µM throughout. In addition, the TGI in assay [1], in assay [2], in assay [3], in [4], in assay [5] and in [6] was over 100 µM each time. Further, the TGI in assay [7], in [8], in assay [9] and in [10] was over 100 µM each time.
Take `Cc1cn(C2CC(O)C(COC(N)=O)O2)c(=O)[nH]c1=O` (stereo not given): the TGI in assay [1], in assay [2], in [3], in assay [4], in assay [5] and in [6] was over 100 µM in each case. Besides, the TGI in assay [7], in assay [8], in assay [9] and in assay [10] was over 100 µM in each case.
As to `Cc1ccc2c(c1)C(O)(c1ccccc1)CCS2` (stereo not given), the TGI in assay [1] is 77.9 µM; in assay [2], 36 µM; in assay [3], 93.5 µM; in [4] it was 73.2 µM; in assay [5], 44.7 µM; in assay [6] it was 82.4 µM. The TGI in [7] is 89.9 µM; in assay [8] it was 46.9 µM; in assay [9], over 100 µM; in [10] it was 80.4 µM.
Consider `NS(=O)(=O)c1cc(C(=O)O)c(Cl)c([N+](=O)[O-])c1Cl`, for which the TGI in assay [1], in assay [2], in assay [3], in assay [4], in assay [5] and in assay [6] was over 100 µM in each case. For the same compound, the TGI in assay [7], in [8], in [9] and in assay [10] was over 100 µM in each case.
Take `c1ccc2c(c1)[nH]c1c3ccccc3sc21`: the TGI in [1], in assay [2], in assay [3], in assay [4], in [5] and in [6] was over 100 µM throughout. Also, the TGI in assay [7], in assay [8], in [9] and in assay [10] was over 100 µM each time.
`COC(=O)[C@H](CCCCNC(=O)OCc1ccccc1)NC(=O)[C@@H](NC(=O)Nc1cc(C(F)(F)F)cc(C(F)(F)F)c1)C(C)C`: the GI50 in assay [1], in [2], in assay [3], in assay [4], in assay [5] and in [6] was over 10 µM in each case. Also, the GI50 in assay [7], in [8], in assay [9] and in [10] was over 10 µM each time. Also, the TGI in [1], in [2], in assay [3], in assay [4], in assay [5] and in [6] was over 10 µM in each case. Also, the TGI in assay [7], in [8], in [9] and in [10] was over 10 µM throughout.
`CC(=O)/C=C/c1ccc(N(CCO)Cc2ccc(C(C)(C)C)cc2)cc1`: the GI50 in [1] was 27.6 µM; in assay [2] it was 28.3 µM; in assay [3], 65.3 µM; in assay [4] it was 64 µM; in [5], 30.1 µM; in [6], 73.3 µM. Besides, the GI50 in [7] is 63.7 µM; in assay [8], 60.3 µM; in assay [9], 43.6 µM; in [10], 96.7 µM. Besides, the TGI in assay [1] was 156 µM; in assay [2] it was 134 µM; in assay [3], 208 µM; in assay [4], 196 µM; in [5], 142 µM; in assay [6] it was 248 µM. Also, the TGI in assay [7] was 235 µM; in [8] it was 187 µM; in assay [9] it was 175 µM; in assay [10] it was 233 µM.
For the compound `Cc1cn2c(/C=C3\C(=O)N(C)c4ccc(Cl)cc43)c(C)nc2s1`, the GI50 in [1] was 6.3 µM; in [2], 5.05 µM; in assay [3], 69.6 µM; in assay [4] it was 1.94 µM; in assay [5], 3.1 µM; in assay [6], 18.5 µM. Further, the GI50 in assay [7] is 3.71 µM; in [8] it was 2.55 µM; in [9], 6.18 µM; in [10], 6.81 µM. The TGI in [1] is 45.4 µM; in [2], over 100 µM; in assay [3], over 100 µM; in assay [4], 5.66 µM; in [5], 15.9 µM; in [6], over 100 µM. Moreover, the TGI is 27.3 µM in [7], 6.93 µM in assay [8], 91 µM in assay [9] and over 100 µM in assay [10].
For the compound `O=C(CC1Sc2ccccc2NC1=O)NNc1ccc(F)cc1` (stereo not given), the GI50 in assay [1] was over 100 µM; in [2] it was 4.51 µM; in assay [3] it was over 100 µM; in [4], 4.34 µM; in assay [5], 5.52 µM; in [6], 41.3 µM. Further, the GI50 was over 100 µM in assay [7], over 100 µM in [8], over 100 µM in assay [9] and 72.9 µM in assay [10]. The TGI in assay [1], in [2], in [3], in assay [4], in assay [5] and in assay [6] was over 100 µM throughout. The TGI in assay [7], in assay [8], in assay [9] and in assay [10] was over 100 µM each time.
